Assay results published in patent US7230016B2, “Pioglitazone salts, such as pioglitazone sulfate, and pharmaceutical compositions and processes using the same” (priority 2003, dated 2007).
Entries after “also recorded” stand apart in the source; their conditions may differ. Where a name gives a salt, the structure may show the parent alone. Read-outs that look alike come from different tables or passages of the source.

What was measured:
[1] = Aqueous solubility of pioglitazone salts derived from strong acids or bases; type: physicochemical; settings: for soluble in H2O: aqueous solubility of the salt, * = the salt is dissolved in water to form a blurred solution
Method: As used herein a pioglitazone salt is considered “water-soluble” if a salt concentration of at least 7 mg/ml can be achieved, even if only momentarily, in distilled water at 25° C. […] The base salts also dissolved in water but they typically formed an unclear solution. The water-soluble salts of pioglitazone are useful as active agents in forming a pioglitazone pharmaceutical composition, especially solid dosage forms, as is described herein after. […] Depending on the salt, the precipitation of a solid begins as quickly as within a few minutes or after several hours. The time of precipitation also depends on nucleation. In particular, once a solid forms, the solution quickly precipitates to form a complete suspension.

[2] = Dissolution experiment comparing pioglitazone salts (Example 2); type: physicochemical; settings: room temperature; for Dissolution (instant dissolution rate): 0.25 mmol salt added into 10 ml H2O with stirring, ** = salt dissolved partially to form an unclear solution; for later behaviour of the solution (turning into suspension / pioglitazone base) / kind of solution yielded on addition to water: 0.25 mmol salt in 10 ml H2O, stirring; for kind of solution yielded on addition to water: tosylate and 2-napsylate within 1 minute
Method: At room temperature, each pioglitazone salt (0.25 mmol) was added into 10 ml H2O with stirring.

[3] = cited from earlier work
[4] = Stability of pioglitazone sulfate aqueous solution with HPMC as solution stabilizer (Examples 3 and 4); type: physicochemical
Source text: Specifically, a solution stabilizer can be effectively added to a pioglitazone sulfate aqueous solution to enhance the stability. As used herein a “solution stabilizer” is an additive that when present in some amount in an aqueous pioglitazone sulfate solution, provides a statistically significant delay in the precipitation of pioglitazone base from the solution in comparison to the same solution held under the same conditions but without the solution stabilizer contained therein. […] Typically the solution stabilizer is a polymer, such as a water-soluble polymer, or a crown-ether. The solution stabilizer may be fully dissolved, partly dissolved and/or swelled, or not dissolved in the aqueous solution, but is preferably dissolved therein. Preferably the solution stabilizer is hydroxypropylmethylcellulose (HPMC), polyvinylpyrrolidone, or cyclodextrin, and most preferably HPMC. The amount of solution stabilizer is generally within the range of 1 to 500 mg/ml of the solution, typically 1 to 200 mg/ml, more typically 10 to 100 mg/ml. A stabilized pioglitazone sulfate solution is thus especially useful as a liquid pharmaceutical formulation and/or for making a liquid pharmaceutical formulation. The following system was tested using HPMC as an additive. […] To a clear solution containing 1.0 g of hydroxypropylmethylcellulose (HPMC) in 25 ml of H2O was added 125 mg of pioglitazone sulfate with stirring.

[5] = Properties of pioglitazone sulfate (solid state, methanol solubility, pH of aqueous solution); type: physicochemical
Method: Of the water-soluble salts, pioglitazone sulfate is the most preferred. As used herein “pioglitazone sulfate” means the salt formed from pioglitazone and sulfuric acid. The salt preferably has approximately a 1:1 molar ratio of pioglitazone moiety to sulfuric acid moiety, especially in solid form. […] Pioglitazone sulfate may be isolated in solid state as a white or almost white crystalline material. It melts at a temperature of about 105 to 115° C., without decomposition. […] Pioglitazone sulfate is thus an especially useful form of pioglitazone for making pharmaceutical formulations, e.g., as an active agent. The pioglitazone sulfate can precipitate from the solution spontaneously, but more likely some step such as cooling, concentrating, adding a seeding crystal, or adding a contrasolvent is advantageously and/or necessarily carried out. As pioglitazone sulfate is soluble in methanol, the addition of a contrasolvent is advantageous for precipitating the solid state salt. […] The size and shape of the formed crystals may be modified by known ways, for instance by precipitation regimen or by using crystallization modifiers. Solid state pioglitazone sulfate is a stable, easily handled solid material, and it may be used as an equivalent to pioglitazone hydrochloride in pharmaceutical compositions for treating pioglitazone-treatable diseases. […] Liquid compositions, particularly aqueous compositions, may include a solution stabilizer as indicated above. The stabilizer preferably comprises a water-soluble polymer, such as hydroxypropylmethylcellulose. The concentration of the polymer in the solution can be within any of the above-described ranges but most preferably is within the range from 0.1 to 10% (w/V) of the total volume. An aqueous solution of pioglitazone sulfate typically has a pH of about 4, which is well suited for both parenteral and peroral compositions.

For `CCc1ccc(CCOc2ccc(CC3SC(=O)NC3=O)cc2)nc1` (stereo not shown) [2-Napsylate], the “soluble in H2O” value [1] was “Slight”, the “Dissolution (instant dissolution rate)” value [2] was “yes/no**” and the “later behaviour of the solution (turning into suspension / pioglitazone base)” value [2] was “quickly turned into a suspension”. The “kind of solution yielded on addition to water” value (“kind of solution yielded” for short) [2] was “unclear solutions”.
With `CCc1ccc(CCOc2ccc(CC3SC(=O)NC3=O)cc2)nc1` (stereo not shown) [Ca salt] the “soluble in H2O” value [1] was “yes*”.
For `CCc1ccc(CCOc2ccc(CC3SC(=O)NC3=O)cc2)nc1` (stereo not shown) [Choline salt], the “soluble in H2O” value [1] was “yes*”.
With `CCc1ccc(CCOc2ccc(CC3SC(=O)NC3=O)cc2)nc1` (stereo not shown) [Edisylate] the “soluble in H2O” value [1] was “Yes”, the “dissolution in water” value ([1]; listed as ethane-di-sulfonate) was “dissolved instantly in water” and the “Dissolution (instant dissolution rate)” value ([2]; listed as ethane-disulfonate) was “Yes”. The “later behaviour of the solution (turning into suspension / pioglitazone base)” value ([2]; listed as ethane disulfonate) was “slowly turned into a suspension” and the “kind of solution yielded” value ([2]; listed as ethane disulfonate) was “clear solutions”.
In the case of `CCc1ccc(CCOc2ccc(CC3SC(=O)NC3=O)cc2)nc1` (stereo not shown) [Hydrobromide], the “soluble in H2O” value [1] is reported as “No”.
With `CCc1ccc(CCOc2ccc(CC3SC(=O)NC3=O)cc2)nc1` (stereo not shown) [Hydrochloride, Pioglitazone hydrochloride] the “soluble in H2O” value ([1]; hydrochloride) was “No”, the “behaviour of methanolic solution poured into water” value ([1]; no base (neutralizing agent) used) was “pioglitazone base quickly precipitates” and the “dissolution in water” value ([1]; hydrochloride) was “did not dissolve in water”. For the same compound, the “solubility in N,N-dimethylformamide” value ([3]; N,N-dimethylformamide) was “dissolves well”, the solubility in acetone ([3]; acetone) was “very slightly soluble” and the solubility in acetonitrile ([3]; acetonitrile) was “very slightly soluble”. The “solubility in anhydrous ethanol” value ([3]; anhydrous ethanol) was “slightly soluble”, the solubility in dimethyl-sulfoxide ([3]; dimethyl-sulfoxide) was “dissolves well” and the solubility in ether ([3]; ether) was “insoluble”. The “stability of the crystalline material” value ([3]; room temperature and under moisture) was “stable” and the solubility in water ([3]; water, hydrochloride) was “practically insoluble; also recorded: extremely insoluble”.
For `CCc1ccc(CCOc2ccc(CC3SC(=O)NC3=O)cc2)nc1` (stereo not shown) [K salt], the “soluble in H2O” value [1] was “yes*”.
In the case of `CCc1ccc(CCOc2ccc(CC3SC(=O)NC3=O)cc2)nc1` (stereo not shown) [Mesylate], the “soluble in H2O” value [1] is reported as “Yes” and the “dissolution in water” value [1] is reported as “dissolved instantly in water”.
For `CCc1ccc(CCOc2ccc(CC3SC(=O)NC3=O)cc2)nc1` (stereo not shown) [Na salt], the “soluble in H2O” value [1] was “yes*”.
For `CCc1ccc(CCOc2ccc(CC3SC(=O)NC3=O)cc2)nc1` (stereo not shown) [Sulfate, pioglitazone sulfate], the “soluble in H2O” value [1] was “Yes”, the “stability of the water solution (precipitation of pioglitazone base)” value ([1]; aqueous solution without stabilizer) was “can stably remain in an aqueous solution for hours; also recorded: will eventually, after a trace of solid appears, turn into a suspension of pioglitazone base” and the “dissolution in water” value [1] was “dissolved instantly in water”. For the same compound, the “solubility in water” value [1] was “superior aqueous solubility”, the “Dissolution (instant dissolution rate)” value [2] was “Yes” and the “later behaviour of the solution (turning into suspension / pioglitazone base)” value [2] was “slowly turned into a suspension”. For the same compound, the “kind of solution yielded” value [2] was “clear solutions”, the “dissolution in HPMC water solution” value ([4]; 100 mg in HPMC water solution (2%, 25 ml)) was “easily dissolved” and the “dissolution in HPMC water solution” value ([4]; 125 mg added with stirring to 1.0 g HPMC in 25 ml H2O) was “A clear solution was formed”. For the same compound, the “stability of the HPMC-stabilized solution” value ([4]; 125 mg in 1.0 g HPMC / 25 ml H2O, stirred at room temperature for more than one month) was “No obvious solid appeared”, the “stability of the HPMC-stabilized solution” value ([4]; 0.4% w/v pioglitazone sulfate in 2% HPMC water solution, room temperature, no obvious precipitation of a solid) was “stable at room temperature for at least four weeks” and the “pH of aqueous solution” value ([5]; aqueous solution) was “about 4”. For the same compound, the solubility in methanol ([5]; methanol) was “soluble”, the “hygroscopicity of the solid compound” value ([5]; solid) was “not hygroscopic” and the “stability of the solid state material” value ([5]; solid state) was “stable”.
With `CCc1ccc(CCOc2ccc(CC3SC(=O)NC3=O)cc2)nc1` (stereo not shown) [Tosylate] the “Dissolution (instant dissolution rate)” value [2] was “yes/no**”, the “later behaviour of the solution (turning into suspension / pioglitazone base)” value [2] was “quickly turned into a suspension” and the “kind of solution yielded” value [2] was “unclear solutions”.
With `CCc1ccc(CCOc2ccc(CC3SC(=O)NC3=O)cc2)nc1` (stereo not shown) [pioglitazone base, 5-[[4-[2-(5-ethyl-2-pyridinyl)-ethoxy]phenyl]methyl]-2,4-thiazolidinedione, reference compound] the “solubility in water” value [1] was “so low”.
